For assay [1], the system named is PD-L1 protein abundance in MC38, CT26, 4T1 and B16-F10 cells. As to the kind of experiment: Immunoblot of PD-L1 in mouse tumor cell lines arrested in M phase. It is filed as cell-based. As to conditions: MC38, CT26, 4T1 and B16-F10 cells arrested in M phase; treated 20 hours. From the text:
FIG. 1A, FIG. 1B, FIG. 1C, FIG. 1D, FIG. 1E, FIG. 1F, FIG. 1G, and FIG. 1H are images showing the protein abundance of PD-L1 as the protein fluctuates during cell cycle progression. […] FIG. 1B are the cell-cycle profiles in FIG. 1A, which were monitored by fluorescence-activated cell sorting (FACS) analysis of DNA content. […] FIG. 1E and FIG. 1F show IB analysis of WCL derived from MC38 tumor cells, which are derived from colon adenocarcinoma, or CT26 mouse tumor cells, which are colon carcinoma cells, treated with the indicated concentration of nocodazole for 20 hours before harvesting. FIG. 1G and FIG. 1H show IB analysis of WCL derived from 4T1 tumor cells, which are breast cancer cells, or CT26 mouse tumor cells treated with indicated concentration of taxol for 20 hours before harvesting. […]
(§1) Cells were lysed in EBC buffer (50 mM Tris pH 7.5, 120 mM NaCl, 0.5% NP-40) supplemented with protease inhibitors (Complete Mini, Roche) and phosphatase inhibitors (phosphatase inhibitor cocktail set I and II, Calbiochem). Protein concentrations were measured by the Beckman Coulter DU-800 spectrophotometer using the Bio-Rad protein assay reagent as described previously (Gao et al. Nat Cell Biol 11, 397-408 (2009)). […]
(A western blot detects proteins with antibodies after separation by electrophoresis.)

For assay [2], the system named is PD-L1 protein in C42 cells. Briefly: Immunoblot of PD-L1 in C42 cells treated with proteasome or cullin E3 ligase inhibitor. Type of assay: cell-based. To be noted: MG132 10 μM or MLN4924 1 μM, 12 hours. How it is done:
FIG. 3K is a graph showing the excised tumor mass (mg) of B16-F10 tumors ectopically expressing SPOP Wild Type (WT) or SPOP-F102C mutant. The B16-F10 tumors were harvested after euthanizing the mice and tumor weight was recorded at the time of sacrifice. Data are represented as mean±S.D., N=5, and *p<0.05 (Student's t-test). FIG. 3L and FIG. 3M are graphs showing the relative cell surface PD-L1 expression and absolute CD3^+ T-cell populations from the isolated tumor-infiltrating lymphocytes in B16-F10 xenografted tumors ectopically expressing SPOP-WT or the SPOP-F102C mutant as determined by FACS analysis. Data are represented as mean±S.D., N=5, and *p<0.05 (Student's t-test). […] FIG. 3O and FIG. 3P are graphs showing the quantification of IHC analysis of PD-L1 protein levels and CD8^+ T cells in 82 cases of SPOP wild-type versus 15 cases of SPOP-mutant human prostate tumor specimens. **p<0.01 (Mann-Whitney test for PD-L1); *p<0.05 (Student's t-test for CD8).
as §1

For assay [3], the target named is T1, PD-L1 (human, UniProt Q9NZQ7 19-290, limits assumed).
T1 construct: also called HA-PD-L1; PD-L1 WT
T1 sequence (Q9NZQ7 19-290 limits assumed): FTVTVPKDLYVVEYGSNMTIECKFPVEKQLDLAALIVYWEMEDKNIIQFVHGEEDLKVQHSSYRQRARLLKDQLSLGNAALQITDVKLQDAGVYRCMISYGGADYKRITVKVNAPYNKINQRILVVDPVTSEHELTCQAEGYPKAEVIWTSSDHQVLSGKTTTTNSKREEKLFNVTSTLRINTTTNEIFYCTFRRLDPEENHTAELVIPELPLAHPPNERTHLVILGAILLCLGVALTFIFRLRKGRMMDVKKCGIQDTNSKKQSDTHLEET
Briefly: co-immunoprecipitation from transfected 293T cells (FIG. 9E).

In assay [4] the target is T2, Cdh1 (UniProt Q9UM11 1-496, limits assumed).
T2 construct: Expressed in 293T cells or endogenous in MDA-MB-231 and HeLa cells; also called HA-Cdh1; APC/C E3 ligase adaptor protein Cdh1
T2 sequence (Q9UM11 whole entry): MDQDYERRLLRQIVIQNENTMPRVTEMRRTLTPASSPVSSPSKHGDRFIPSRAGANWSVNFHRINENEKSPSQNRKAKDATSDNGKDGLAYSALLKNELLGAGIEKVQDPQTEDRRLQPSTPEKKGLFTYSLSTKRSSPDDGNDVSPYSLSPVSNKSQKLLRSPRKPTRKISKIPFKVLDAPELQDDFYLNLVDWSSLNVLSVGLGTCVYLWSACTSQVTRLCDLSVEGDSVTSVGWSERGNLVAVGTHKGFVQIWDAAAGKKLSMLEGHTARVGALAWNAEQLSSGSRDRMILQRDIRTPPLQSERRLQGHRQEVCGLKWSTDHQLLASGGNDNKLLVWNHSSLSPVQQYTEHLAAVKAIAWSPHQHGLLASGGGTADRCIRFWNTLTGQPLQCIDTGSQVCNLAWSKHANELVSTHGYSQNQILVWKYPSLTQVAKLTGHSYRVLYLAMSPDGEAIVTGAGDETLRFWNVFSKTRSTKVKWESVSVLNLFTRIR
Briefly: co-immunoprecipitation from transfected 293T cells (FIG. 4C). How it is done:
Cells were treated with 30 μM MG132 for 6 hours before harvesting. […] FIG. 4F are in vitro kinase assays showing that cyclin D1/CDK4 phosphorylates SPOP at Ser6, not Ser222. FIG. 4G and FIG. 4H show IB analysis of IP and WCL derived from 293T cells transfected with indicated constructs and treated with MG132 (10 μM) for 12 hours before harvesting. […] Tumor volume were measured every three days and plotted individually. […]

Assay [5] concerns the target T3, SPOP-S6A mutant (UniProt O43791 1-374).
T3 construct: also called Flag-SPOP S6A; phosphorylation-deficient S6A mutant of SPOP
As to the kind of experiment: co-immunoprecipitation from transfected 293T cells (FIG. 4H).

Seven molecules from patent US20200377599A1, “COMPOSITIONS AND METHODS FOR TREATING CANCER” (BETH ISRAEL DEACONESS MEDICAL CENTER, INC., priority 2017, published 2020) can be followed below.

Where a SMILES comes first, the peptide text is derived from it. The star is where a group is joined. Cbz = O=C(OCc1ccccc1)*

For `CC(=O)O[C@H]1C(=O)[C@@]2(C)[C@H]([C@H](OC(=O)c3ccccc3)[C@]3(O)C[C@H](OC(=O)[C@H](O)[C@@H](NC(=O)c4ccccc4)c4ccccc4)C(C)=C1C3(C)C)[C@]1(OC(C)=O)CO[C@@H]1C[C@@H]2O` [Taxol], the PD-L1 protein abundance entry in assay [1] is reported as “Elevated PD-L1 protein abundance”. Regarding `CC(C)C[C@@H](C=O)NC(=O)[C@H](CC(C)C)NC(=O)[C@H](CC(C)C)NC(=O)OCc1ccccc1` [MG132] (Cbz-Leu-Leu-Leu-aldehyde), the PD-L1 protein stability entry in assay [2] is given as “stabilized PD-L1 protein”. The same measure, in the same setting: the value for `NS(=O)(=O)OC[C@@H]1C[C@@H](n2ccc3c(N[C@H]4CCc5ccccc54)ncnc32)C[C@@H]1O` [MLN4924] was “stabilized PD-L1 protein”. With `COC(=O)Nc1nc2ccc(C(=O)c3cccs3)cc2[nH]1` [nocodazole], the PD-L1 protein abundance result in assay [1] was “Elevated PD-L1 protein abundance”.

B1: SPOP delta MATH (other, UniProt O43791 1-374, looked up)
chain: MSRVPSPPPPAEMSSGPVAESWCYTQIKVVSVVQDSVNISGQNTMNMVKVPECRLADELGGLWENSRFTDCCLCVAGQEFQAHKAILAARSPVFSAMFEHEMEESKKNRVEINDVEPEVFKEMMCFIYTGKAPNLDKMADDLLAAADKYALERLKVMCEDALCSNLSVENAAEILILADLHSADQLKTQAVDFINYHASDVLETSGWKSMVVSHPHLVAEAYRSLASAQCPFLGPPRKRLKQS
notes: also called SPOP with the MATH domain deleted; Flag-tagged SPOP delta MATH
As for B1, in assay [3], the binding result is reported as “no binding”.

B2: Flag-SPOP with delta D-Box (RxxL) (other, UniProt O43791 1-374, looked up)
chain: MSRVPSPPPPAEMSSGPVAESWCYTQIKVVKFSYMWTINNFSFCREEMGEVIKSSTFSSGANDKLKWCLRVNPKGLDEESKDYLSLYLLLVSCPKSEVRAKFKFSILNAKGEETKAMESQRAYRFVQGKDWGFKKFIRLDEANGLLPDDKLTLFCEVSVVQDSVNISGQNTMNMVKVPECRLADELGGLWENSRFTDCCLCVAGQEFQAHKAILAARSPVFSAMFEHEMEESKKNRVEINDVEPEVFKEMMCFIYTGKAPNLDKMADDLLAAADKYALERLKVMCEDALCSNLSVENAAEILILADLHSADQLKTQAVDFINYHASDVLETSGWKSMVVSHPHLVAEAYRSLASAQCPFLGPPRKRLKQS
notes: also called SPOP deletion of RxxL mutant; SPOP D-box deletion
For B2, in assay [4], the binding result is “no binding”.

B3: 14-3-3γ (other, UniProt P61981 1-247, looked up)
chain: MVDREQLVQKARLAEQAERYDDMAAAMKNVTELNEPLSNEERNLLSVAYKNVVGARRSSWRVISSIEQKTSADGNEKKIEMVRAYREKIEKELEAVCQDVLSLLDNYLIKNCSETQYESKVFYLKMKGDYYRYLAEVATGEKRATVVESSEKAYSEAHEISKEHMQPTHPIRLGLALNYSVFYYEIQNAPEQACHLAKTAFDDAIAELDTLNEDSYKDSTLIMQLLRDNLTLWTSDQQDDDGGEGNN
notes: One of the HA-14-3-3 isoform constructs; also called HA-14-3-3γ
Consider B3, for which, in assay [5], the binding result was “no binding”.
